Reference: patent US20120305840A1, “CARBON DIOXIDE ABSORBING SOLUTION” (Kabushiki Kaisha Toshiba, priority 2009, published 2012)

Experiments:
[1] = Volatility: decreased amount of absorbent by 1H-NMR after heating; type: physicochemical; settings: 60 minutes at 140° C.
Experimental: According to the decreased amount, the volatility was evaluated. The less the decreased amount was, the less volatile the absorbent was regarded as. In general, if containing a less volatile absorbent, the absorbing solution can be repeatedly regenerated without decrease of the absorbent content.

[2] = Precipitation in the absorbing solution after absorbing carbon dioxide; type: physicochemical

Row | SMILES | volatility of the absorbent (in words) [1] | precipitation in the absorbing solutions on absorbing carbon dioxide to form products [2]
1 | O=C([O-])C1CNC1.[K+] [absorbent 1, potassium 1-aza-azetidine-3-carboxylate] | hardly volatilize | did not precipitate
2 | O=C([O-])C1CCCN1.[K+] (stereo not shown) [absorbent 2, pyrrolidine-2-carboxylic acid salt] | hardly volatilize | did not precipitate
